Source: patent US20260232805A1, “METHODS FOR IMAGING USING SPCCT” (NH THERAGUIX, priority 2022, published 2026)

Experiment: Osmolarity of the contrast agent composition
Type: physicochemical
Conditions: comparator, hyperosmolar
Excerpt: For comparison, Dotarem® (gadoteric acid, GUERBET, FRANCE) is hyperosmolar at 1574 mosm, which can cause side effects in humans related to the hypertonicity of a hyperosmolar product creating an intense call of water from the interstitial and cellular spaces to the plasma, responsible for pain or heat. A pain threshold of 600 mOsm/kg has been set.

Osmolarity: 1574 mosm
SMILES: O=C([O-])CN1CCN(CC(=O)[O-])CCN(CC(=O)O)CCN(CC(=O)[O-])CC1.[Gd+3] [Dotarem®, gadoteric acid]
